Assay results: the NIST ThermoML archive (doi:10.1016/j.fluid.2008.01.020)
Numbers after ± are expanded uncertainties.

Tests used:
[1] = refractive index (Na D-line) (dimensionless); conditions: 101.33 kPa, Liquid, Standard Abbe refractometry
[2] = Liquid; for mass density: 293.15 K, 101.33 kPa

SMILES | refractive index ([1]; 293.15 K) | mass density [2] [kg/m3] | other results
Cc1cccc(C)c1 [1,3-dimethylbenzene] | 1.4972 ± 0.0007 | 864.4 ± 1.2 | vapor or sublimation pressure ([2]; 410.25 K): 95.1 ± 3 kPa
Cc1cccc(O)c1 [3-methylphenol] | 1.5414 ± 0.0007 | 1034 ± 1.5 | vapor or sublimation pressure ([2]; 473.35 K): 95.1 ± 3 kPa
Cc1ccc(C)cc1 [1,4-dimethylbenzene] | 1.4858 ± 0.0007 | 861 ± 1.2 | vapor or sublimation pressure ([2]; 408.65 K): 95.1 ± 3 kPa
CN(C)C=O [dimethylformamide] | 1.4305 ± 0.0007 | 948.7 ± 1.4 | vapor or sublimation pressure ([2]; 420.95 K): 95.1 ± 3 kPa
Cc1ccc(O)cc1 [4-methylphenol] | – | – | refractive index ([1]; 298.15 K): 1.5391 ± 0.0007; vapor or sublimation pressure ([2]; 475.35 K): 95.1 ± 3 kPa
Cc1ccccc1C [1,2-dimethylbenzene] | 1.5055 ± 0.0007 | 880.1 ± 1.3 | vapor or sublimation pressure ([2]; 415.35 K): 95.1 ± 3 kPa
Cc1ccccc1O [2-methylphenol] | 1.5468 ± 0.0007 | 1046 ± 1.6 | vapor or sublimation pressure ([2]; 463.65 K): 95.1 ± 3 kPa
